Literature values as cited in patent US6051572A, “Azetidine, pyrrolidine and piperidine derivatives” (Merck Sharp & Dohme Ltd., priority 1995, dated 2000).

Settings: therapeutic doses

Question: With `CNS(=O)(=O)Cc1ccc2[nH]cc(CCN(C)C)c2c1` [sumatriptan] as the compound, how does the “adverse events in humans” value read?
Answer: The value was “certain adverse cardiovascular events”.
